According to paper PMC12720774, “Detergents alter the stability and lipid binding properties of the CD1d immunoreceptor” (Protein Science : A Publication of the Protein Society, 2025):
“And” between values parts separate entries of the source, which are not always exact repeats. Equal entries are not always repeated. Where two headings read alike, the source gives them in different places.

Assays:
[1] = molecular target: T1, recombinant human CD1d ectodomain/β2m complex (hCD1d) (Homo sapiens, UniProt P15813); assay: Intrinsic tryptophan fluorescence (ITF) binding assay; conditions: 18:1 LPC titration with 0.05% CHAPS; read-out: K D (ITF) of lipid
T1 construct: TEV protease cleavage site ENLYFQS (C); BirA biotinylation site (C); His7 (C); made in house; host or cells: TurboCHO cells (GenScript)
T1 sequence (P15813 whole entry, looked up, the tested form may be a part, one chain of several): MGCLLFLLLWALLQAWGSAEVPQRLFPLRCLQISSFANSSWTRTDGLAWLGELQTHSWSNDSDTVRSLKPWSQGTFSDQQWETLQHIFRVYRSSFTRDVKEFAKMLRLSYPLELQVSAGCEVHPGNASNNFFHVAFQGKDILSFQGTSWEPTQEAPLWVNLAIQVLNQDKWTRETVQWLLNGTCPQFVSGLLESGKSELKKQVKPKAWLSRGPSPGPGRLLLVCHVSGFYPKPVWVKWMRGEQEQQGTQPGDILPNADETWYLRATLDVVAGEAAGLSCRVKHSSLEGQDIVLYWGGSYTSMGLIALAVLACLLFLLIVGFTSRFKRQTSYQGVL
Procedure: For ITF assays, the concentration of hCD1d was kept constant, and intrinsic Trp fluorescence (excitation at 285 nm, emission at 335 nm) was measured as a function of increasing detergent concentration (Fossum et al., [2023]) (Figure S2). The change in relative fluorescence intensity (F − F 0/F 0) provides an indication of binding. […] This was due to limited detergent solubility and decreased hCD1d stability in the presence of a large excess of detergent (see below). […] SDS was the exception, for which Trp fluorescence of hCD1d decreased with added detergent. This could indicate a unique conformational change or destabilization of the protein.
ITF spectra were recorded from 300 to 500 nm using a Horiba FL3‐21 Fluorometer with the excitation wavelength of 285 nm and excitation/emission slits of 6.2 nm. Fluorescence spectra of 50 to 100 nM hCD1d were acquired in the absence and presence of detergents in 1X PBS pH 7.4 at 25°C. Prior to data acquisition, hCD1d and detergent or lipid samples were incubated at 37°C overnight (~12 h) to simulate in vitro and in vivo loading conditions. […] For 18:1 LPC experiments, fluorescence spectra of 100 nM hCD1d were acquired in the absence and presence of 18:1 LPC in 1X PBS pH 7.4 at 25°C. […] For all ITF experiments, the change in fluorescence signal (F − F 0/F 0) was determined at 335 nm. Three replicates were performed, and data are presented as the mean ± standard deviation (n = 3). K D values were fitted with non‐linear regression in GraphPad Prism v10.1.

AF647‐labeled hCD1d [2] = molecular target: T2, AF647‐labeled hCD1d (Homo sapiens, UniProt P15813); assay: Microscale thermophoresis (MST) binding assay; conditions: read-out: K D (MST) of lipid
T2 construct: TEV protease cleavage site ENLYFQS (C); BirA biotinylation site (C); His7 (C); made in house; host or cells: TurboCHO cells (GenScript)
T2 sequence (P15813 whole entry, looked up): as the sequence (P15813 whole entry, looked up, the tested form may be a part, one chain of several) above
From the text: (§1) The experimental limitations of ITF, such as low instrument sensitivity, high sample consumption, signal overlap with some ligands, and low throughput (Fossum et al., [2023]), made it necessary to employ alternative, complementary assays to quantify detergent binding to hCD1d. […] MST measures the diffusion of fluorescent molecules in response to microscopic temperature gradients (Seidel et al., [2013]). When a protein forms a complex with a ligand, changes in hydrodynamic properties, charge, or solvation energy alter its thermophoretic behavior, allowing detection of binding events. To perform MST experiments, Alexa Fluor 647 (AF647) dye was covalently attached to the primary amines of hCD1d via standard N‐hydroxysuccinimide coupling chemistry (Anderson et al., [1964]). The concentration of AF647‐hCD1d was kept constant, and the change in MST signal was measured as a function of increasing detergent concentration (Figure S3). Like ITF, any lipid or detergent that destabilizes CD1 can also alter the MST signal since unfolding changes the protein's Stokes radius and its thermophoretic behavior. […] This is why we compare MST results with ITF and nanoDSF, as described below.
(§2) For MST, hCD1d was fluorescently labeled with AF647‐NHS Ester (Invitrogen #A20006). Briefly, a 10 mM stock of AF647‐NHS was prepared in anhydrous DMSO. Then, 100 μL of 50 μM hCD1d in 1X PBS pH 7.4 was mixed with 1 μL of 10 mM AF647‐NHS (1:2 molar ratio of protein: dye). The mixture was allowed to react for 1 h in the dark at 25°C. Unreacted dye was removed from the protein–dye conjugate by performing size exclusion chromatography in the dark with a Superdex 200 Increase 10/300 GL column at a flow rate of 0.5 mL/min in SEC buffer (100 mM NaCl, 20 mM sodium phosphate, pH 7.2). The degree of labeling was determined by a NanoDrop spectrophotometer at A647 nm (dye absorbance) and A280 nm (hCD1d absorbance). The degree of labeling was determined from the ratio of dye concentration to protein concentration. The degree of labeling was ~75%.
(§3) MST experiments were performed using a Monolith NT.115 instrument (NanoTemper Technologies) using Monolith standard capillaries and the red excitation laser setup. The following settings were applied for all MST experiments: excitation power: 30%–50%, MST power: medium, before MST time: 3 s, MST on time (IR laser): 20 seconds, and after MST time: 1 s. MST measurements were analyzed using the Monolith Affinity Analysis software v2.3 and exported for plotting in GraphPad Prism v10.1. Three replicates were performed, and data are presented as the mean ± standard deviation (n = 3).
(§4) MST measurements of 100 nM AF647‐hCD1d were acquired in the absence and presence of detergents in 1X PBS pH 7.4 at 25°C. Prior to data acquisition, hCD1d and detergent or lipid samples were incubated at 37°C overnight (~12 h) to simulate in vitro and in vivo loading conditions. […] For 18:1 LPC experiments: MST data of 100 nM AF647‐hCD1d were acquired in the absence and presence of 18:1 LPC in 1X PBS pH 7.4 at 25°C.

hCD1d [3] = molecular target: T3, hCD1d (Homo sapiens, UniProt P15813+P61769); assay: Nano differential scanning fluorimetry (nanoDSF) thermal stability; format: binding; set-up: TEV protease cleavage site ENLYFQS (C); BirA biotinylation site (C); His7 (C); made in house; host or cells: TurboCHO cells (GenScript)
T3 sequence (P61769+P15813 fused): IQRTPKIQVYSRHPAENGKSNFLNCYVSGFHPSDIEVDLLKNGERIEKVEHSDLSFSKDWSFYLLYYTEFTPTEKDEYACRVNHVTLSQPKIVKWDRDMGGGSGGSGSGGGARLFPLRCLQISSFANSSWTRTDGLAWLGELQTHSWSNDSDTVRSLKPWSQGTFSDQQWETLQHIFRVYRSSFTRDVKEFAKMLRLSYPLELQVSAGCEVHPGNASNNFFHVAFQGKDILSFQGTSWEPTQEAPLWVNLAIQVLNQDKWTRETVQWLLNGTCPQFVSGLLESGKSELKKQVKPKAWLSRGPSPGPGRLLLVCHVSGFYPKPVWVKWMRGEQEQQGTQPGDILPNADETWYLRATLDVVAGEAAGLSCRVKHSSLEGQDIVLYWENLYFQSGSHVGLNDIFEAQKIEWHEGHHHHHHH
From the text: We next sought to probe the ability of each detergent to influence the thermal stability of hCD1d. NanoDSF has been previously applied to measure lipid/detergent‐induced thermal stability changes in target proteins (Cecchetti et al., [2021]; Kotov et al., [2019]), but has not yet been applied to ligand binding to CD1. NanoDSF measures the ITF ratio (F 350 nm/F 330 nm) of proteins as a function of temperature to extract thermodynamic parameters. Given that ligand binding typically shifts the melting temperature of proteins, the effect of a ligand on protein stability can be approximated with the ΔT m value (the difference in T m with and without excess ligand) (Cecchetti et al., [2021]; Kotov et al., [2019]). We found all detergents tested to destabilize hCD1d, albeit to different degrees, with ΔT m values ranging from −0.8 to −14.2°C (Figures 4, S4, and Table 1).
Nano differential scanning fluorometry (nanoDSF) was performed using a Prometheus NT.48 (NanoTemper Technologies). Purified hCD1d at 1 μM in 1X PBS pH 7.4 was loaded into nanoDSF grade standard capillaries (NanoTemper Technologies) and exposed to temperatures ranging from 20 to 95°C with a thermal ramping rate of 1°C/min. Excitation power was set to 50%. The ratio of intrinsic fluorescence emission (F 350 nm/F 330 nm) was monitored. Melting temperatures (T m) were obtained from fitting the first derivative plots in the Prometheus NT.48 Software. The experiments were performed in triplicate, and data are presented as the mean ± standard deviation (n = 3).
For experiments with most detergents, prior to data acquisition, hCD1d and detergent or lipid samples were incubated at 37°C overnight (~12 h) to simulate in vitro and in vivo loading conditions. […] For 18:1 LPC experiments: nanoDSF spectra were acquired in the absence and presence of 18:1 LPC in 1X PBS pH 7.4 at 25°C.

[4] = Lipid solubility on resuspension in buffer; format: physicochemical; conditions: 1X PBS pH 7.4 with or without detergent
From the text: Detergents were resuspended to desired stock concentrations in 1X PBS pH 7.4 using sonication/heating. The following lipids were purchased: 1‐oleoyl‐2‐hydroxy‐sn‐glycero‐3‐phosphocholine (18:1 LPC, Avanti Research #845875) and α‐galactosyl ceramide (α‐GalCer, Avanti Research #867000).

hCD1d [5] = molecular target: T3, hCD1d; set-up: method as in Cantu et al., 2003; Naidenko et al., 1999; conditions: previously estimated, in the presence of detergent; ref Cantu et al., 2003; Naidenko et al., 1999; read-out: binding affinity to hCD1d; cited from earlier work
AF647‐labeled hCD1d [6] = molecular target: T4, AF647‐labeled hCD1d (Homo sapiens, UniProt P15813+P61769); assay: Microscale thermophoresis (MST) binding assay
T4 construct: TEV protease cleavage site ENLYFQS (C); BirA biotinylation site (C); His7 (C); made in house; host or cells: TurboCHO cells (GenScript)
T4 sequence (P61769+P15813 fused): as above
From the text: as §1, §2, §3, §4

[7] = approximate, cited from earlier work
CD1c = system: CD1c; set-up: method as in Mansour et al., 2016; conditions: ref Mansour et al., 2016; cited from earlier work
[8] = 0.001 M detergent, 100 nM AF647‐hCD1d
[9] = Figure 5B, detergent binding to hCD1d, read-out: MST - Kd (uM) average
[10] = detergent with 100 nM AF647‐labeled hCD1d, 25°C, apparent, read-out: K D (MST)

Row | Fnorm (rep 1-3) (AF647‐labeled hCD1d [6]; 3.05176e-8 M detergent) | Fnorm (rep 1-3) (AF647‐labeled hCD1d [6]; 6.10352e-8 M detergent) | Fnorm (rep 1-3) (AF647‐labeled hCD1d [6]; 1.2207e-7 M detergent) | Fnorm (rep 1-3) (AF647‐labeled hCD1d [6]; 2.44141e-7 M detergent) | Fnorm (rep 1-3) (AF647‐labeled hCD1d [6]; 4.88281e-7 M detergent) | Fnorm (rep 1-3) (AF647‐labeled hCD1d [6]; 9.76563e-7 M detergent) | Fnorm (rep 1-3) (AF647‐labeled hCD1d [6]; 1.95313e-6 M detergent) | Fnorm (rep 1-3) (AF647‐labeled hCD1d [6]; 3.90625e-6 M detergent) | Fnorm (rep 1-3) (AF647‐labeled hCD1d [6]; 7.8125e-6 M detergent) | Fnorm (rep 1-3) (AF647‐labeled hCD1d [6]; 1.5625e-5 M detergent) | Fnorm (rep 1-3) (AF647‐labeled hCD1d [6]; 3.125e-5 M detergent) | Fnorm (rep 1-3) (AF647‐labeled hCD1d [6]; 6.25e-5 M detergent) | Fnorm (rep 1-3) (AF647‐labeled hCD1d [6]; 0.000125 M detergent) | Fnorm (rep 1-3) (AF647‐labeled hCD1d [6]; 0.00025 M detergent) | Fnorm (rep 1-3) (AF647‐labeled hCD1d [6]; 0.0005 M detergent) | Fnorm (rep 1-3) (AF647‐labeled hCD1d [6]; [8]) | Kd (AF647‐labeled hCD1d [6]; [9]) | Kd (AF647‐labeled hCD1d [6]; [10]) | Compound | other results
1 |  |  |  |  |  |  |  |  |  |  |  |  |  |  |  |  |  |  | CCCCCCCC/C=C\CCCCCCCC(=O)OC[C@@H](O)COP(=O)([O-])OCC[N+](C)(C)C [18:1 LPC, 1‐oleoyl‐2‐hydroxy‐sn‐glycero‐3‐phosphocholine] | Kd [1]: 59.9 ± 19.4 µM; Kd (AF647‐labeled hCD1d [2]; 18:1 LPC titration with 0.05% CHAPS): 5.6 ± 1.3 µM; Kd (AF647‐labeled hCD1d [2]; 18:1 LPC titration, absence of detergent, 100 nM AF647‐hCD1d, 25°C): ~7.7 µM and 7.7 µM; ΔT m (nanoDSF) of lipid (hCD1d [3]; absence vs presence of 200 μM 18:1 LPC, no detergent): −8.1 ± 1.7 °C
2 |  |  |  |  |  |  |  |  |  |  |  |  |  |  |  |  |  |  | CCCCCCCCCCCCCCCCCCCCCCCCCC(=O)N[C@@H](CO[C@H]1O[C@H](CO)[C@H](O)[C@H](O)[C@H]1O)[C@H](O)[C@H](O)CCCCCCCCCCCCCC [α‐GalCer, α‐galactosyl ceramide] | Kd (AF647‐labeled hCD1d [2]; α‐GalCer titration with 0.05% Tween 20, estimated): 6.6 ± 4.1 µM; solubility (in words) [4]: only soluble in the presence of Tween 20; Kd (hCD1d [5]): 0.1 to 0.5 µM; ΔT m (nanoDSF) of lipid (hCD1d [3]; absence vs presence of 50 μM α‐GalCer, with 0.05% Tween 20): +13.7 ± 0.2 °C
3 | 785.26 ‰ and 791.115 ‰ and 789.222 ‰ | 784.438 ‰ and 791.56 ‰ and 788.778 ‰ | 784.577 ‰ and 791.858 ‰ and 788.445 ‰ | 783.564 ‰ and 789.878 ‰ and 788.022 ‰ | 786.159 ‰ and 790.976 ‰ and 787.911 ‰ | 783.182 ‰ and 790.102 ‰ and 788.409 ‰ | 785.891 ‰ and 792.21 ‰ and 790.819 ‰ | 790.454 ‰ and 796.89 ‰ and 795.418 ‰ | 794.424 ‰ and 799.885 ‰ and 798.852 ‰ | 798.147 ‰ and 805.399 ‰ and 802.688 ‰ | 808.083 ‰ and 815.048 ‰ and 810.611 ‰ | 810.692 ‰ and 818.134 ‰ and 815.29 ‰ | 813.488 ‰ and 820.003 ‰ and 816.128 ‰ | 817.047 ‰ and 822.493 ‰ and 816.971 ‰ | 814.88 ‰ and 822.01 ‰ and 817.951 ‰ | 817.154 ‰ and 821.721 ‰ and 817.771 ‰ | 15.1 µM | 15.1 ± 1.5 µM | NP‐40 | CMC ([7]; ref Fisher catalogue): 290 µM; CMC ([7]; weight/volume, ref Fisher catalogue): 0.0179%
4 | 791.41 ‰ and 793.583 ‰ and 796.04 ‰ | 790.759 ‰ and 794.057 ‰ and 796.294 ‰ | 791.349 ‰ and 794.228 ‰ and 797.32 ‰ | 790.267 ‰ and 793.445 ‰ and 796.715 ‰ | 790.372 ‰ and 793.504 ‰ and 796.705 ‰ | 791.231 ‰ and 794.12 ‰ and 796.582 ‰ | 791.888 ‰ and 794.837 ‰ and 796.079 ‰ | 797.735 ‰ and 798.529 ‰ and 800.673 ‰ | 801.114 ‰ and 802.717 ‰ and 802.805 ‰ | 806.412 ‰ and 805.281 ‰ and 808.579 ‰ | 808.925 ‰ and 810.844 ‰ and 811.355 ‰ | 813.586 ‰ and 816.925 ‰ and 817.48 ‰ | 826.07 ‰ and 832.084 ‰ and 828.584 ‰ | 828.437 ‰ and 829.609 ‰ and 830.632 ‰ | 829.715 ‰ and 832.769 ‰ and 836.286 ‰ | 833.009 ‰ and 835.212 ‰ and 836.54 ‰ | 45.8 µM | 45.8 ± 7.9 µM | Triton X‐100 | CMC ([7]; ref Anatrace catalogue): 230 µM; CMC ([7]; weight/volume, ref Anatrace catalogue): 0.015%; stripping of lipid antigens from CD1c (in words) (CD1c): could efficiently strip lipid antigens away
